The target of one test is T1, FXR (Homo sapiens, UniProt Q96RI1).
T1 construct: host or cells: CHO cells
T1 sequence (Q96RI1 1-486): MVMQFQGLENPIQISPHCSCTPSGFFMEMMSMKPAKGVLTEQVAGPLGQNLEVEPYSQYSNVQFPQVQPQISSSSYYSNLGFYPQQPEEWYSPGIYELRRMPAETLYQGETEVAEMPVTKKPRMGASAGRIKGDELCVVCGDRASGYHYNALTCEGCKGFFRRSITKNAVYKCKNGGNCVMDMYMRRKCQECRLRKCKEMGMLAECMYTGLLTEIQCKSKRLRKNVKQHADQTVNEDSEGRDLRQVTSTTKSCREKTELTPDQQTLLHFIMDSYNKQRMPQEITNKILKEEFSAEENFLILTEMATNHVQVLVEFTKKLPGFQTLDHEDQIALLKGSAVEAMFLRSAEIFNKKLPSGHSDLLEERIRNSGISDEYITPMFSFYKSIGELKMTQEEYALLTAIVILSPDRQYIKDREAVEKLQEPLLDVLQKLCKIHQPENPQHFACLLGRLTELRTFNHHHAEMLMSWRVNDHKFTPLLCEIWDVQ
The experiment in a line: CHO cell-based FXR luciferase reporter assay (Indigo Biosciences). Conditions: for FXR Efficacy (%) (1 µM) / FXR Efficacy (%) (10 µM) / FXR Efficacy (%) (0.1 µM): % vs OCA 1 µM as 100%. Here is the method:
To evaluate direct agonist activities against FXR, test compounds were evaluated using a CHO cell-based FXR assay by Indigo Biosciences (State College, PA), in which cells were transfected with an FXR luciferase reporter system.
To directly evaluate the in vitro agonist activity towards FXR, test compounds were evaluated in CHO cells transfected with FXR responsive luciferase reporter (Nuclear Receptor & In Vitro Toxicology Solutions, Indigo Biosciences, State College, PA, USA). […] Each compound was tested in duplicate, and the average value was reported[35],[36].
(§1) The cell recovery medium (CRM, Human Farnesoid X Receptor (NR1H4, FXR reporter assay system, Indigo Biosciences, State College, PA, USA) and compound screening medium (CSM, Human Farnesoid X Receptor (NR1H4, FXR reporter assay system, Indigo Biosciences, State College, PA, USA) were removed from the freezer and thawed in a water bath at 37 °C. Test compounds were dissolved in dimethyl sulfoxide (DMSO, FUJIFILM Wako Pure Chemical Corporation, Osaka city, Osaka, Japan), and the treatment medium was prepared and diluted with CSM to achieve a final concentration of 0.2% total DMSO. The reporter cells were thawed by transferring 3.3 mL CRM at 37 °C into tubes of frozen cells. The tube containing reporter cells was recapped, and it was immediately place in a 37 °C water bath for 5 min. The reporter cells were gently inverted several times, and 100 µL cell suspension was dispensed into each well. One hundred microliters of treatment media was added into wells. Subsequently, the assay plate was kept at 37 °C, and it was incubated with 5% CO2 for 22 h. To prepare luciferase detection reagent (LDR), the detection substrate was gently mixed with detection buffer, media contents were removed from each well, and 100 µL LDR was added to each well of the assay plate. The assay plate was allowed to rest at room temperature for 5 min, and luminescence was quantified using the Multi-Mode Microplate Reader (FlexStation 3, Molecular Devices Inc., San Jose, CA, USA)[36].
S4. In vitro, in vivo assay, and selectvity.
To directly evaluate the in vitro agonist activity towards FXR, test compounds were evaluated in CHO cells transfected with FXR responsive luciferase reporter (Nuclear Receptor & In Vitro Toxicology Solutions, Indigo Biosciences, State College, PA, USA). Cells were incubated with […]
(FlexStation 3, Molecular Devices Inc., San Jose, CA, USA). Efficacies are reported relative to […]
reporter on of 1 µM. Each compound was tested in duplicate, and the average value was […]
as §1, with “sulfoxide (DMSO ,” for “sulfoxide (DMSO,”, “Osaka, Jap an),” for “Osaka, Japan),”, “a 37°C” for “a 37 °C”, “5% CO 2” for “5% CO2”, “using […]” for “using the Multi-Mode Microplate Reader (FlexStation 3, Molecular Devices Inc., San Jose, CA, USA)[36].”
For orientation: A reporter such as luciferase makes a cellular process visible.

The target of another test is T2, TGR5 (Homo sapiens, UniProt Q8TDU6).
T2 construct: host or cells: CHO cells
T2 sequence (Q8TDU6 1-330): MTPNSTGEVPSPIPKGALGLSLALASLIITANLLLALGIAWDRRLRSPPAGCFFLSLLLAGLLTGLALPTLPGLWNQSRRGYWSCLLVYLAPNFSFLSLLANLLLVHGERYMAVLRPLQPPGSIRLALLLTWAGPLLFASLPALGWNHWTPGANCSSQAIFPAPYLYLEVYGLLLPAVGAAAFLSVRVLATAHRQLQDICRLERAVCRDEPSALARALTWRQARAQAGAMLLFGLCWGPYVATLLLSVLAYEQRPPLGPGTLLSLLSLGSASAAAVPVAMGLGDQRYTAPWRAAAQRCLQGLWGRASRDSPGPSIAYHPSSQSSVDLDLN
The experiment in a line: TGR5 cAMP assay in CHO cells transfected with TGR5 (cAMP Hunter eXpress, Discover X). The class given is cell-based. Conditions: for TGR5 Efficacy (%) (10 µM) / TGR5 Efficacy (%) (1 µM): % vs INT-767 10 µM as 100%. The protocol: TGR5 agonist activity was evaluated by transfecting CHO cells with TGR5 using the Discover X expression kit (cAMP Hunter eXpress GPCR Assay, Discover X Fremont, CA). Cells were incubated with test compounds for 0.5 h, and intracellular cAMP levels were measured using the multi-mode microplate reader.
(§2) TGR5 agonist activity was evaluated by transfecting CHO cells with TGR5 using the Discover X expression kit (cAMP Hunter eXpress Assay Kit, Discover X Fremont, CA, USA). Cells were incubated with the test compounds for 0.5 h, and intracellular cAMP levels were measured using Multi-Mode Microplate Reader (FlexStation 3, Molecular Devices Inc., San Jose, CA, USA).
Each compound was tested at concentrations of 10, 1, or 0.1 µM in duplicate (n = 2), with the average value shown.
S4. In vitro, in vivo assay, and selectvity. […]
In vitro TGR5 agonist assay protocol
as §2
Each compound was tested at concentrations of 10, 1, or 0.1 µM in duplicate (n=2), with the […]
parameter logistic equation, Y = min + (max - min)/(1 + 10^(n * (log10(EC50) - log10(conc)))), in […]
On the technique in general: Changes in cAMP serve as a functional read-out for many G protein-coupled receptors.

Each structure is given as a SMILES string.

Turning to `CN(C)c1ccc(-c2ccc(CN(C(=O)c3ccncc3Cl)c3cc(Cl)cc(Cl)c3)cc2)cc1` [Compound 13x], at FXR, the “FXR Efficacy (%) (1 µM)” value was 62.1%. Besides, the “TGR5 Efficacy (%) (10 µM)” value on TGR5 worked out at 9.8%.

Consider `CN(C)c1ccc(-c2ccc(CN(C(=O)c3ccncc3Br)c3cc(Cl)cc(Cl)c3)cc2)cc1` [Compound 13y], for which the “FXR Efficacy (%) (1 µM)” value at FXR was 51.6%. Moreover, the “TGR5 Efficacy (%) (10 µM)” value on TGR5 was -2.0%.

`CN(C)c1ccc(-c2ccc(CN(C(=O)c3ccncc3C(F)(F)F)c3cc(Cl)cc(Cl)c3)cc2)cc1` [Compound 13z]: the “FXR Efficacy (%) (1 µM)” value on FXR is 10.6%. Further, the “TGR5 Efficacy (%) (10 µM)” value at TGR5 worked out at 24.4%.

Consider `Cc1cnccc1C(=O)N(C[C@H]1CC[C@H](c2ccccc2)CC1)c1cc(Cl)cc(Cl)c1` [Compound 20a], for which, at FXR, the “FXR Efficacy (%) (1 µM)” value turned out to be 52.2%. Further, the “TGR5 Efficacy (%) (10 µM)” value on TGR5 worked out at 22.3%.

As to `Cc1cnccc1C(=O)N(C[C@H]1CC[C@H](c2ccc(N(C)C)cc2)CC1)c1cc(Cl)cc(Cl)c1` [Compound 20b], at FXR, the “FXR Efficacy (%) (1 µM)” value is 47.1% and the “FXR Efficacy (%) (10 µM)” value is on record as 106.8%. The “TGR5 Efficacy (%) (10 µM)” value at TGR5 was 31.1%.

`Cc1cccc([C@H]2CC[C@H](CN(C(=O)c3ccncc3C)c3cc(Cl)cc(Cl)c3)CC2)c1` [Compound 20c]: the “FXR Efficacy (%) (1 µM)” value at FXR came to 51.7%. For the same compound, the “TGR5 Efficacy (%) (10 µM)” value on TGR5 stood at 5.7%.

On to `COc1ccc([C@H]2CC[C@H](CN(C(=O)c3ccncc3C)c3cc(Cl)cc(Cl)c3)CC2)cc1C` [Compound 20d], for which, on FXR, the “FXR agonist activity (in words)” value is given as “partial FXR agonists”, the “FXR Efficacy (%) (1 µM)” value is 55.2% and the “FXR Efficacy (%) (10 µM)” value is given as 129.6%. Also, on TGR5, the “TGR5 agonist activity (in words)” value is “weak TGR5 agonist” and the “TGR5 Efficacy (%) (10 µM)” value is on record as 28.8%.

Regarding `COc1ccc([C@@H]2CC[C@@H](CN(C(=O)c3ccncc3C)c3cc(Cl)cc(Cl)c3)C(C)C2)cc1C` (stereo partly shown) [Compound 20e], on FXR, the “FXR agonist activity (in words)” value is “partial FXR agonists”, the “FXR Efficacy (%) (1 µM)” value was found to be 69.1% and the “FXR Efficacy (%) (10 µM)” value is given as 72.6%. Also, on TGR5, the “TGR5 agonist activity (in words)” value is “weak TGR5 agonist” and the “TGR5 Efficacy (%) (10 µM)” value stood at 33.9%.

On to `COc1ccc(C23CCC(CN(C(=O)c4ccncc4C)c4cc(Cl)cc(Cl)c4)(CC2)CC3)cc1C` [Compound 20f], for which, on FXR, the “FXR agonist activity (in words)” value is reported as “partial FXR agonists”, the “FXR Efficacy (%) (1 µM)” value came out at 90.3% and the “FXR Efficacy (%) (10 µM)” value is on record as 64.3%. On TGR5, the “TGR5 agonist activity (in words)” value is “weak TGR5 agonist” and the “TGR5 Efficacy (%) (10 µM)” value is 28.8%.

With `COc1ccc(C2C3CCC2CC(CN(C(=O)c2ccncc2C)c2cc(Cl)cc(Cl)c2)C3)cc1C` (stereo not shown) [Compound 20g], on FXR, the “FXR Efficacy (%) (1 µM)” value is 51.1%. The “TGR5 Efficacy (%) (10 µM)” value at TGR5 is reported as -5.2%.

As to `COc1ccc(C23CCC(CN(C(=O)c4ccncc4C)c4cc(F)cc(Cl)c4)(CC2)CC3)cc1C` [Compound 20i], at FXR, the “FXR Efficacy (%) (0.1 µM)” value is 62.6% and the “FXR Efficacy (%) (1 µM)” value was 89.2%. In addition, the “TGR5 Efficacy (%) (10 µM)” value at TGR5 came to 62.1%.

In the case of `CCc1cnccc1C(=O)N(CC12CCC(c3ccc(OC)c(C)c3)(CC1)CC2)c1cc(F)cc(Cl)c1` [Compound 20j], on FXR, the “FXR Efficacy (%) (0.1 µM)” value was determined as 13.5% and the “FXR Efficacy (%) (1 µM)” value amounted to 71.7%. Besides, on TGR5, the “TGR5 Efficacy (%) (1 µM)” value was determined as 21.5% and the “TGR5 Efficacy (%) (10 µM)” value came to 71.1%.

Take `Cc1cnccc1C(=O)N(CC12CCC(c3ccc4c(c3)CCO4)(CC1)CC2)c1cc(Cl)cc(Cl)c1` [Compound 20m]: on FXR, the “FXR Efficacy (%) (0.1 µM)” value was 58.5% and the “FXR Efficacy (%) (1 µM)” value turned out to be 91.5%. In addition, the “TGR5 Efficacy (%) (10 µM)” value on TGR5 was 72.4%.

Regarding `Cc1cnccc1C(=O)N(CC12CCC(c3ccc4c(c3)OCO4)(CC1)CC2)c1cc(Cl)cc(Cl)c1` [Compound 20n], on FXR, the “FXR Efficacy (%) (0.1 µM)” value is on record as 73.5% and the “FXR Efficacy (%) (1 µM)” value is given as 98.9%. For the same compound, the “TGR5 Efficacy (%) (10 µM)” value at TGR5 is 67.6%.

`COc1cc(Cl)cc(N(CC23CCC(c4ccc5c(c4)OCO5)(CC2)CC3)C(=O)c2ccncc2C)c1` [Compound 20o]: at FXR, the “FXR Efficacy (%) (0.1 µM)” value turned out to be 29.4% and the “FXR Efficacy (%) (1 µM)” value was 97.6%. On TGR5, the “TGR5 Efficacy (%) (1 µM)” value is reported as 36.0% and the “TGR5 Efficacy (%) (10 µM)” value was determined as 78.9%.

On to `Cc1cnccc1C(=O)N(CC12CCC(c3ccc4c(c3)OCCO4)(CC1)CC2)c1cc(Cl)cc(Cl)c1` [Compound 20r], for which, on FXR, the “FXR Efficacy (%) (0.1 µM)” value stood at 28.0% and the “FXR Efficacy (%) (1 µM)” value is on record as 72.6%. Further, at TGR5, the “TGR5 agonist activity (in words)” value was “most potent TGR5 activity” and the “TGR5 Efficacy (%) (1 µM)” value turned out to be 57.1%.

As to `Cc1cnccc1C(=O)N(CC12CCC(c3ccc(N(C)C)cc3)(CC1)CC2)c1cc(Cl)cc(Cl)c1` [Compound 20s], at FXR, the “FXR agonist activity (in words)” value is recorded as “high potency against FXR”, the “FXR Efficacy (%) (0.1 µM)” value was determined as 56.4% and the “FXR Efficacy (%) (1 µM)” value is given as 95.3%. In addition, on TGR5, the “TGR5 Efficacy (%) (1 µM)” value stood at 18.9%.

Regarding `COc1cc(Cl)cc(N(CC23CCC(c4ccc(N(C)C)cc4)(CC2)CC3)C(=O)c2ccncc2C)c1` [Compound 20t], at FXR, the “FXR Efficacy (%) (0.1 µM)” value is reported as 32.8% and the “FXR Efficacy (%) (1 µM)” value was found to be 77.3%. For the same compound, the “TGR5 Efficacy (%) (1 µM)” value on TGR5 was 25.0%.

Take `COc1ncc(C23CCC(CN(C(=O)c4ccncc4C)c4cc(Cl)cc(Cl)c4)(CC2)CC3)cc1C` [Compound 20u]: on FXR, the “FXR Efficacy (%) (0.1 µM)” value came to 69.2% and the “FXR Efficacy (%) (1 µM)” value was found to be 76.2%. In addition, the “TGR5 Efficacy (%) (1 µM)” value on TGR5 is listed as 12.1%.

(Values after PMC8080777, “Discovery, optimization, and evaluation of non-bile acid FXR/TGR5 dual agonists” (Scientific Reports, 2021).)
